Test results published in patent US20110301162A1, “AURORA KINASE MODULATORS AND METHODS OF USE” (AMGEN INC., priority 2008, published 2011).

Columns and labels:
HeLa cells = assay: HeLa cell 24 hr ploidy assay; format: cell-based; details: Homo sapiens, 24 hrs treatment, DNA ploidy, average, read-out: 24h_4N Ploidy EC50_IP (uM Avg)
Protocol: The purpose of this assay is to evaluate the ability of selected individual compounds to induce Deoxyribonucleic acid (DNA) content (ploidy) in cells through failed cell division. Cell cycle analysis is a rapid and efficient way to evaluate the status of DNA content (ploidy) of a given cell. HeLa cells (1×10^4 HeLa cells/well) in 100 ul of media (MEM+10% FBS) were plated in 96-well plates (Packard View) and cultured for 24 hrs at 37° C. maintained in a 5% CO2 atmosphere. The following day, cells were treated for 24 hrs with inhibitor compounds (10 pt. Dose ranging from 0.0024-1.25 umol/L). The compounds were serially diluted in DMSO (0.25% final concentration). The cells were fixed (3.7% Formaldehyde and 1% glutaraldehyde) and permeabilized (1×PBS with 1% BSA an d0.2% Triton X-100) in preparation for nuclear staining. The well plates were stained for 45 minutes at RT in the dark using Hoechest 33342 nuclear stain at 0.5 ug.ml (Stock of 10 mg/ml, Invitrogen, Calif., Cat #H3570). The nuclear stain was removed by aspiration and the cells were washed with wash buffer. A Cellomics Array Scan Vti plate reader was used to acquire the DNA ploidy data of the cells using Cell Cycle bioapplication. Numbers for each of “valid cell count/well”, “% of 4N cells” and “% of >4Ncells” were calculated with the assistance of an Activity Base 5.1ca software and dose curves were generated using an XLFit software. With XLFit, final EC50 IP and EC50 transit values, as well as the Max and Min, were calculated for each curve.

AuroraB = molecular target: T1, AuroraB (Homo sapiens, UniProt Q96GD4); assay: AuroraB Homogeneous Time Resolved Fluorescent (HTRF) kinase assay; format: biochemical; details: average; ATP 23 μM; read-out: AurB_IC50_IP (uM Avg)
T1 construct: 20 μL of AuroraB FL His; His
Protocol: The AuroraB HTRF assay begins with AuroraB in the presence of ATP phosphorylating the biotinylated peptide Histone H3. The reaction incubates for about 90 min. the reaction is quentched by addition of detection reagents, which stop the reaction by diluting out the enzyme and chelating the metals due to the presence of EDTA. After addition, the assay is incubated for about 60 min to allow detection reagents to equilibrate.
The AuroraB HTRF assay comprises 1 μL of compound in 100% DMSO, 20 μL of ATP and biotinylated Histone H3, and 20 μL of AuroraB FL His for a final volume of 41 μL. The final concentration of Histone H3 is 0.1 μM. The final concentration of ATP is 23 μM (Km(app)=23 μM+/−2.6) and the final concentration of AuroraB is 400 pM. Buffer conditions are as follows: 50 mM HEPES pH 7.5, 5 mM NaCl, 0.5 mM MgCl, 0.5 mM MnCl, 2 mM DTT, 0.05% BSA.
(§1) The assay is quenched and stopped with 160 μL of detection reagent. Detection reagents are as follows: Buffer made of 50 mM Tris, pH 7.5, 100 mM NaCl, 3 mM EDTA, 0.05% BSA, 0.1% Tween20. Added to this buffer prior to reading is Steptavidin allophycocyanin (SA-APC) at a final conc in the assay of 0.001 mg/mL, and europilated anti-phosphoHistoneH3 Ab (Eu-anti-HisH3) at a final conc of 0.064 nM.
(§2) The assay plate is read in either a Discovery or a RubyStar. The eu-anti-HisH3 is excited at 320 nm and emits at 615 nm to excite the SA-APC which in turn emits at 655 nm. The ratio of SA-APC at 655 nm (excited due to close proximity to the Eu-anti-HisH3 because of phosphorylation of the peptide) to free Eu-anti-HisH3 at 615 nm will give substrate phosphorylation.
Many of the Examples described herein were tested, and fund to be active compounds. Table I includes related biological data, which may be interpreted using the activity gauge below.

AuroraA-TPX2 = molecular target: T2, AuroraA-TPX2 (Homo sapiens, UniProt O14965); assay: AuroraA-TPX2 Homogeneous Time Resolved Fluorescent (HTRF) kinase assay; format: biochemical; details: average; ATP about 1 μM; read-out: AurA_IC50_IP (uM Avg)
T2 construct: 20 μL of AuroraA-TPX2 KD GST; GST
T2 sequence (O14965 133-383 limits assumed): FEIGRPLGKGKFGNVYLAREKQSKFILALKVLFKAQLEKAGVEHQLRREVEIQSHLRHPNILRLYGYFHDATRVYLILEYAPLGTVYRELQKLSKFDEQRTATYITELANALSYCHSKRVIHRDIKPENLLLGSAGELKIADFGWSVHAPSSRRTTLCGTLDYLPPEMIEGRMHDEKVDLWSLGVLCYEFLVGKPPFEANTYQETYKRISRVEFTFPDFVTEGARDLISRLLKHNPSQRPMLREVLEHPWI
T2 sequence (Q9ULW0 1-43 partner limits assumed): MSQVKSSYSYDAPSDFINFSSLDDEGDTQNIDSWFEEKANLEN
Protocol: The Aurora-A HTRF assay begins with Aurora-A in the presence of ATP phosphorylating the biotinylated peptide PLK. The reaction incubates for about 120 min. Detection reagents are added to quench the reaction. These agents stop the reaction by diluting out the enzyme and chelating the metals due to the presence of EDTA. After addition, the assay is incubated overnight to allow the detection reagents to equilibrate.
The AuroraA HTRF assay comprises 1 μL of compound in 100% DMSO, 20 μL of ATP and biotinylated PLK, and 20 μL of AuroraA-TPX2 KD GST for a final volume of about 41 μL. The final concentration of PLK is about 1 μM. The final concentration of ATP is about 1 μM (Km(app)=1 μM+/−0.1) and the final concentration of AuroraA is about 5 nM. Buffer conditions are as follows: 60 mM HEPES pH 7.5, 25mM NaCl, 10 mM MgCl, 2 mM DTT, 0.05% BSA.
as §1, with “0.0005” for “0.001”, “anti-phosphoPLK” for “anti-phosphoHistoneH3”, “(Eu-anti-PLK)” for “(Eu-anti-HisH3)”, “0.02” for “0.064”
as §2, with “eu-anti-PLK” for “eu-anti-HisH3”, “Eu-anti-PLK” for “Eu-anti-HisH3”
Many of the Examples described herein were tested and found to be active compounds. Table I includes related biological data, which may be interpreted using the activity gauge below.

T1 sequence (Q96GD4 whole entry): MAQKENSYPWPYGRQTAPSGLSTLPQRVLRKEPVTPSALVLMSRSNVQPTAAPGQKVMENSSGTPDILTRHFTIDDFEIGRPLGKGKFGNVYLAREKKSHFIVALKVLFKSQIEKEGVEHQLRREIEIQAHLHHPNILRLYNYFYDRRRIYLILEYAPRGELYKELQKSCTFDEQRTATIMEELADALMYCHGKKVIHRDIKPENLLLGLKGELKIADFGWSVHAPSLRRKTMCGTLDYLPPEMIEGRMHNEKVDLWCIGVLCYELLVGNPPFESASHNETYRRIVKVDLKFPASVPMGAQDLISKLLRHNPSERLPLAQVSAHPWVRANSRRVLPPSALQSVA

Question: What does the source list for CNC(=O)c1cc(Oc2ccc(Nc3nnc(-c4ccc(Cl)cc4)c4ccccc34)cc2)ccn1 [Example 26, 4-((4-((4-(4-chlorophenyl)-1-phthalazinyl)amino)phenyl)oxy)-N-methyl-2-pyridinecarboxamide]?
Answer: EC50 (HeLa cells): 0.1 to 0.5 µM; IC50 (AuroraB): 0.1 to 0.5 µM; IC50 (AuroraA-TPX2): 0.1 to 0.5 µM

Question: For OCCNc1nccc(Sc2ccc(Nc3nnc(-c4ccc(Cl)cc4)c4ccccc34)cc2)n1 [Example 32, 2-((4-((4-((4-(4-chlorophenyl)-1-phthalazinyl)amino)phenyl)sulfanyl)-2-pyrimidinyl)amino)ethanol], which EC50 (HeLa cells) is on record?
Answer: < 0.1 µM

Question: And the IC50 (AuroraB)?
Answer: < 0.1 µM

Question: What about the IC50 (AuroraA-TPX2) of the same molecule?
Answer: < 0.1 µM

Question: Which results are given for Clc1ccc(-c2nnc(Nc3ccc(Sc4ccnc(-c5cc6ccccc6[nH]5)n4)cc3)c3ccccc23)cc1 [Example 36, 4-(4-chlorophenyl)-N-(4-((2-(1H-indol-2-yl)-4-pyrimidinyl)sulfanyl)phenyl)-1-phthalazinamine]?
Answer: EC50 (HeLa cells): < 0.1 µM; IC50 (AuroraB): < 0.1 µM; IC50 (AuroraA-TPX2): < 0.1 µM

Question: How did the EC50 (HeLa cells) turn out when O=C(Nc1cc(Oc2ccc(Nc3nnc(-c4ccccc4)c4ccccc34)cc2F)ccn1)N1CCOCC1 [Example 44, N-(4-((2-fluoro-4-((4-phenyl-1-phthalazinyl)amino)phenyl)oxy)-2-pyridinyl)-4-morpholinecarboxamide] was run?
Answer: 0.1 to 0.5 µM

Question: And the IC50 (AuroraB)?
Answer: < 0.1 µM

Question: And the IC50 (AuroraA-TPX2)?
Answer: 0.1 to 0.5 µM

Question: How did the EC50 (HeLa cells) turn out when Cc1ccc(-c2nnc(Nc3ccc(Sc4ccnc(-c5cc6ccccc6[nH]5)n4)cc3)c3ccccc23)cn1 [Example 39, N-(4-((2-(1H-indol-2-yl)-4-pyrimidinyl)sulfanyl)phenyl)-4-(6-methyl-3-pyridinyl)-1-phthalazinamine] was run?
Answer: 0.1 to 0.5 µM

Question: And the IC50 (AuroraB)?
Answer: < 0.1 µM

Question: What about the IC50 (AuroraA-TPX2) of the same molecule?
Answer: 0.1 to 0.5 µM

Question: Cc1csc(-c2nnc(Nc3ccc(Sc4ccnc(-c5cc6ccccc6[nH]5)n4)cc3)c3ccccc23)c1 [Example 37, N-(4-((2-(1H-indol-2-yl)-4-pyrimidinyl)sulfanyl)phenyl)-4-(4-methyl-2-thiophenyl)-1-phthalazinamine] was tested. Which EC50 (HeLa cells) did it give?
Answer: < 0.1 µM

Question: What about the IC50 (AuroraB) of the same molecule?
Answer: < 0.1 µM

Question: What about the IC50 (AuroraA-TPX2) of the same molecule?
Answer: < 0.1 µM

Question: Which results are given for CNC(=O)c1cc(Sc2ccc(Nc3nnc(-c4ccc(Cl)cc4)c4ccccc34)cc2)ccn1 [Example 25, 4-((4-((4-(4-chlorophenyl)-1-phthalazinyl)amino)phenyl)thio)-N-methyl-2-pyridinecarboxamide]?
Answer: EC50 (HeLa cells): 0.1 to 0.5 µM; IC50 (AuroraB): 0.1 to 0.5 µM; IC50 (AuroraA-TPX2): 1 to 5 µM
